In patent publication US20220380383A1, “NEUROPROTECTIVE PDI MODULATING SMALL MOLECULES AND METHODS OF USE THEREOF” (THE TRUSTEES OF COLUMBIA UNIVERSITY IN THE CITY OF NEW YORK, priority 2018, published 2022):
Values after ≈ are worked out from the molar mass of the structure shown. Where two headings read alike, the source gives them in different places.

Key:
[1] = system: neuronal redox state (roGFP2); test: roGFP2 redox reporter in primary neurons; format: cell-based; settings: 30 min treatment
Description: […]. Rat coronal brain slice explants co-transfected with YFP and Tau-4R (FIG. 16B) or striatal brain slice explants co-transfected with YFP and mHTT (FIG. 16C) were treated with LC-43 or DMSO carrier-only for 3 days. The respective regions of each brain slice were then scored for numbers of healthy (FIG. 16B) pyramidal or (FIG. 16C) medium spiny neurons remaining. Data are normalized to the negative control condition set to 100% and plotted as means±SEM. In FIG. 16D, The confocal images shown are maximal z-stacks of 0.5 μm steps (˜20 images per stack). (Bottom) Reduction of neuronal redox state by LC-43. Left, Primary neurons were co-transfected with mCherry (to positively identify transfected neurons) and the genetically encoded ratiometric redox reporter roGFP2. Four days later, the culture medium was changed into an identical formulation except without conventional antioxidant additives. 24 hours after this medium change, LOC-43 or DMSO carrier-only were added to the neurons and images were taken after 30 minutes or 24 hours of treatment as indicated. Imaging was done using a Leica SP5 inverted confocal microscope through a 63× water-immersion objective. Images of 40 individual neurons for each condition were collected at 405 and 488 nm and analysis of the 405/488 ratio for each image pair was done using CellProfiler (Broad Institute).
As mentioned, we synthesized several fluorine-containing analogs of LOC14 (analogs LC-43 and LC-40). Addition of fluorine was the only modification that was tolerated at the ortho position without a complete loss of activity in cells and in targeting PDI in vitro (Table 9). […] Additionally, we evaluated LC-43 using a genetically encoded redox reporter transfected into neurons. […] In contrast, treatment with the non-selective reducing agent dithiothreitol (DTT) produces an immediate and dramatic reduction in the roGFP2 fluorescence ratio that leads rapidly to cell degeneration and death (FIG. 16D). […]

[2] = target: T1, human catalytic PDI A1 a domain (PDIa) (Homo sapiens, UniProt P07237); test: Isothermal titration calorimetry (ITC) binding to PDIa; settings: for ITC KD: N/A = not active
T1 construct: made in house; host or cells: Escherichia coli BL21-Gold (DE3)
T1 sequence (P07237 18-134): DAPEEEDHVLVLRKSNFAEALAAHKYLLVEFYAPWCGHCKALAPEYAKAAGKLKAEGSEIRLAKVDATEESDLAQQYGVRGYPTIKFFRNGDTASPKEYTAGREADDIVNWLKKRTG

PC12 mHTTQ103 cells [3] = test: Rescue of PC12 cells from mHTTQ103-induced cell death; format: cell-based, rat; settings: for EC50: Rattus norvegicus, PC-12
[4] = target: T2, PDIa C56S mutant (PDI C39S) (Homo sapiens, UniProt P07237, C56S); test: MALDI-TOF mass spectrometry with PDIa C56S mutant; format: binding
T2 construct: made in house; host or cells: E. coli
T2 sequence (P07237 18-134 C56S): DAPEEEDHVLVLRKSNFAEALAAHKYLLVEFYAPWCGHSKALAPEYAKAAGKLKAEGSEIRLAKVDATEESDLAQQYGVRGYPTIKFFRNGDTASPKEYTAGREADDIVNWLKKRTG
Text: We also explored the feasibility of generating a crystal structure of PDI bound to one of these inhibitors for structure-based analog design. LOC14 is a reversible inhibitor of PDI and therefore may not remain bound to the protein in crystallization trays. To trap the LOC14-PDI complex, we generated a PDI C39S mutant that should not release the compound from PDI. To confirm this mechanism of binding, we performed MALDI-TOF mass-spectrometry experiments with PDI C39S in the presence and absence of LOC14 (FIG. 4). […] PDI C39S treated with LOC14 gave 4 peaks: main mass peak at 15,557 Da (change of +152 which corresponds to the bound benzoisothiazolone moiety to PDI C39S), a peak at 15,735 Da (corresponding to the benzoisothiazolone moiety bound to C39S-gluconoylated protein), a peak at 15,404 (the mass of unbound C39S protein), and a peak at 15,584 Da (the mass of unbound C39S-gluconoylated protein). […] The incomplete binding is most likely due to the presence of reducing agent in the buffer. […]
To confirm that binding of LOC14 to PDI is reversible, we pre-treated a C56S mutant, as before, with LOC14, BIT, or iodoacetamide, an irreversible modifier of cysteines. Once the PDI-inhibitor complexes were formed, we treated the samples with 2.7 mM DTT, a reducing agent, and analyzed the complex by MALDI-TOF.

[5] = Solubility (stock solvent)
PDI = PDI (Homo sapiens, UniProt P07237); test: Enzymatic assay for inhibition of PDI using insulin as substrate; format: biochemical
Sequence of PDI (P07237 18-508): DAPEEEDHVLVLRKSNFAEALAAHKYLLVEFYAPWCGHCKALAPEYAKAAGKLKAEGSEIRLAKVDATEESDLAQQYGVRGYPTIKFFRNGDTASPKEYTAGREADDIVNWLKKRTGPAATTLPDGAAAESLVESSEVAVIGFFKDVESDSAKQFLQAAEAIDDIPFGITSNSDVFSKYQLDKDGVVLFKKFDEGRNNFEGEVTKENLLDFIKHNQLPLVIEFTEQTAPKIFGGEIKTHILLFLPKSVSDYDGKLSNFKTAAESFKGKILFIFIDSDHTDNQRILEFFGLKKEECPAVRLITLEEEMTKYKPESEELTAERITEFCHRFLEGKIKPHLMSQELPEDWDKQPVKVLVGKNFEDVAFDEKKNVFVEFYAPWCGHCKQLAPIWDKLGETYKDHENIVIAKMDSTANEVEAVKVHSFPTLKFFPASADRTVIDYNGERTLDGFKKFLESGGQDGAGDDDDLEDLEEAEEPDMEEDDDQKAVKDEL

[6] = system: uninduced PC12 cells not expressing mHTTQ103; test: General cell toxicity in PC12 cell culture assay; format: cell-based
Description: Neuroprotection was assessed by each compound's ability to rescue cells from mutant-huntingtin-induced cell death (“Ind Q103” cells; blue). General cell toxicity of each compound was assessed in uninduced cells not expressing mutant-huntingtin protein (“Unind Q103” cells; red). NMP, DMSO, LOC14 in NMP and LOC14 in DMSO were used as controls.
Data from cells induced to express mHTT^Q103 (blue) and cells not expressing mHTT^Q103 (red) are plotted as mean percent of DMSO-treated uninduced cells±SD with n=3.
The follow-up testing of primary screen hits was performed in a similar way. Fresh powder stocks of primary hits were re-ordered from vendors, dissolved in DMSO and tested in a two-fold serial dilution across 10 wells in both tebufenozide-induced and uninduced PC12 mHTT^Q103 cells. Dose-response curves were plotted as mean±SD and fit to either four-parameter sigmoidal (for uninduced cells) or bell-shaped (induced) function using Prism (GraphPad Software).

15N-labeled PDIa = target: T3, 15N-labeled PDIa (Homo sapiens, UniProt P07237); test: 1H-15N HSQC NMR of PDIa; format: binding
T3 construct: His6 (N, cleaved yes); made in house; host or cells: Escherichia coli BL21-Gold (DE3), M9 minimal medium with 15NH4Cl
T3 sequence (P07237 18-134): as the sequence (P07237 18-134) above
Description: The ^1H-^15N HSQC spectra were performed on Bruker Avance III 500 Ascend (500 MHz) spectrometers at 300 K. The uniformly ^15N-labeled PDIa was dissolved at 50 μM or 100 μM in 90% H2O/10% D20 (v/v), pH 5.1. The ^1H carrier frequency was positioned at the water resonance. The ^15N carrier frequency was positioned at 115 ppm. The spectral width in the ^1H dimension was 7500 Hz and the width in ω1 (^15N) dimension was 1824.6 Hz. Suppression of water signal was accomplished using the WATERGATE sequence. Heteronuclear decoupling was accomplished using GARP decoupling scheme.

[7] = system: ROS in PC12 mHTTQ103 cells; test: CellROX Orange flow cytometry ROS assay; format: cell-based, rat; settings: 3 μM, 24 hours, mHTT-induced cells
Description: (§1) In FIG. 14B, cells were stained with 5 μM CeIIROX Orange dye to assay cellular ROS production. Representative data from one of three flow cytometry replicates are shown. In FIG. 14C, an aliquot from each sample was used for assessing viability, using Trypan blue dye on ViCell. […] Data are plotted as mean±SD with n=3.
(§2) One goal was to further understand why modulating PDI activity can be neuroprotective in AD and HD models. Previously, we saw that LOC14 alters PDI's redox state from the reduced to the oxidized conformation (Kaplan et al. 2015). In vivo, there are oxidoreductase enzymes, such as ERO1, that regulate PDI's redox states and, as a byproduct of the redox reaction, pass electrons to oxygen as a final electron acceptor, generating H2O2. We hypothesized that LOC14 might function in place of oxidoreductases such as ERO1, oxidizing PDI without generating H2O2 and that this decrease in ROS production is what is causing the neuroprotection in cells and neurons. […] Cells were then stained with the fluorescent ROS-sensitive dye, CeIIROX Orange, and ROS assayed by flow cytometry. Induced mHTT-expressing cells had elevated levels of ROS compared to cells not expressing mHTT (uninduced cells) and these ROS were decreased in cells treated with LOC14 (FIG. 14B). […]

PC12 mHTTQ103 cells [8] = test: Trypan blue viability assay; format: cell-based, rat; settings: 3 μM, 24 hours
Description: as §1, §2

[9] = Tables 5-13, PC12 cells, read-out: EC50
[10] = Tables 5-13, solvent not given (DMSO in Table 1)
[11] = rescue from mHTTQ103 induced cell death

Row | SMILES | EC50 (PC12 mHTTQ103 cells [3]; [9]) [µM] | Max Viability (%) (PC12 mHTTQ103 cells [3]; Tables 5-13, PC12 cells) | binding to PDI by ITC [2] | ITC KD [2] | PC12 cells Max % Viability (PC12 mHTTQ103 cells [3]; [11]) [%] | inhibition of enzymatic (reductase) activity of PDI (PDI) | toxicity in PC12 cell culture assay [6] | chemical shift changes in PDIa (1H-15N HSQC) (15N-labeled PDIa) | also measured
1 | O[C@H](CS)[C@H](O)CS (racemic) [DTT, dithiothreitol, reference compound] | – | – | – | – | – | – | – | – | neuronal redox state (roGFP2) [1]: immediate and drastic reduction
2 | O=c1[nH]sc2ccccc12 [BIT, benzoisothiazolone, reference compound] | 0.362 | 66 | – | – | – | – | – | – | Kd ([2]; Tables 5-13, NA = not active, read-out: Kd): 0.143 µM; reversibility of binding to PDIa C56S after 2.7 mM DTT [4]: bind reversibly to C53; Solubility [5, 10]: 100 mM (≈ 15.1 mg/mL)
3 | O=c1[nH]sc2c(F)cccc12 [LC-40, 7-fluorobenzo[d]isothiazol-3(2H)-one] | 9.33 | 72 | showed no binding to the protein by ITC | KD = N/A irreversible or not active | 72.31 | able to inhibit the enzymatic activity of PDI | decreased cellular toxicity | – | Solubility [5]: 100 mM in DMSO; Solubility [5, 10]: 100 mM (≈ 16.9 mg/mL)
4 | Cc1nc2s[nH]c(=O)c2c(C)c1C [LC-51] | 2.2 | 63 | could not be detected by ITC | KD = N/A irreversible or not active | 63.14 | did inhibit the enzymatic activity of PDI | complete loss of toxicity | induced the same chemical shifts in PDI as LOC14 | –
5 | Cc1nc2sn(CN3CCN(C(=O)C4CC4)CC3)c(=O)c2c(C)c1C [LC-52] | 3.57 | 68 | could not be detected by ITC | KD = N/A irreversible or not active | 68.30 | did inhibit the enzymatic activity of PDI | complete loss of toxicity | induced the same chemical shifts in PDI as LOC14 | –
6 | Cc1cc(C)c2c(=O)n(CN3CCN(C(=O)C4CC4)CC3)sc2n1 [LC-53] | 4.25 | 67 | could not be detected by ITC | KD = N/A irreversible or not active | 67.25 | did inhibit the enzymatic activity of PDI | complete loss of toxicity | induced the same chemical shifts in PDI as LOC14 | EC50 (PC12 mHTTQ103 cells [3]; rescue from mHTTQ103 induced cell death, read-out: PC12 cells EC50): 4.25 µM
7 | O=C(C1CC1)N1CCN(Cn2oc3ccccc3c2=O)CC1 [OxyLOC14] | – | – | – | – | – | – | – | – | cellular ROS (CellROX Orange flow cytometry) [7]: did not decrease ROS; protection from mHTT in trypan blue viability assay (PC12 mHTTQ103 cells [8]): did not show any protection from mHTT
8 | NC(=O)CI [iodoacetamide] | – | – | – | – | – | – | – | – | reversibility of binding to PDIa C56S after 2.7 mM DTT [4]: irreversible
